Assays:
Assay type in all cases: in vivo
Plutella xylostella = Plutella xylostella (diamond back moth), L2 larvae on artificial diet; details: 120 h, application rate of 200 ppm, mortality and growth inhibition 5 days after infestation
Protocol: Plutella xylostella (Diamond Back Moth):
(§1) 24-well microtiter plates with artificial diet were treated with aqueous test solutions prepared from 10′000 ppm DMSO stock solutions by pipetting. After drying, the plates were infested with L2 larvae (10 to 15 per well). The samples were assessed for mortality and growth inhibition 5 days after infestation. Control of Plutella xyllostella by a test sample is noted when at least one of mortality and growth inhibition is better than the untreated sample.

Heliothis virescens = Heliothis virescens (tobacco budworm), eggs on artificial diet; details: 120 h, application rate of 200 ppm, egg mortality, larval mortality, growth inhibition 5 days after infestation
Protocol: Heliothis virescens (Tobacco Budworm):
Eggs (0-24 h old) were placed in 24-well microtiter plates on artificial diet and treated with aqueous test solutions prepared from 10′000 ppm DMSO stock solutions by pipetting. The samples were assessed for egg mortality, larval mortality and growth inhibition 5 days after infestation. Control of Heliothis virescens by a test sample is noted when at least one of egg mortality, larval mortality and growth inhibition is better than the untreated sample.

Spodoptera littoralis = Spodoptera littoralis (Egyptian cotton leaf worm), cotton leaf disc spray test; details: foliar, 72 h, application rate of 200 ppm, mortality, anti-feedant effect, growth inhibition 3 days after infestation, L1 larvae
Protocol: Spodoptera littoralis (Egyptian Cotton Leaf Worm)
Cotton leaf discs were placed on agar in 24-well microtiter plates and sprayed with aqueous test solutions prepared from 10′000 ppm DMSO stock solutions. After drying the leaf discs were infested with five L1 larvae. The samples were assessed for mortality, anti-feedant effect, and growth inhibition 3 days after infestation. Control of Spodoptera littoralis by a test sample is noted when at least one of mortality, anti-feedant effect, and growth inhibition is better than the untreated sample.

Tetranychus urticae = Tetranychus urticae (two-spotted spider mite), bean leaf disc spray test; details: foliar, 192 h, application rate of 200 ppm, mortality (mobile stages) 8 days after infestation, mixed ages
Protocol: Tetranychus urticae (Two-Spotted Spider Mite):
Bean leaf discs on agar in 24-well microtiter plates were sprayed with aqueous test solutions prepared from 10′000 ppm DMSO stock solutions. After drying the leaf discs were infested with a mite population of mixed ages. The samples were assessed for mortality (mobile stages) 8 days after infestation.

Thrips tabaci = Thrips tabaci (onion thrips), sunflower leaf disc spray test; details: foliar, 144 h, application rate of 200 ppm, mortality 6 days after infestation, mixed ages
Protocol: Thrips tabaci (Onion Thrips):
Sunflower leaf discs were placed on agar in 24-well microtiter plates and sprayed with aqueous test solutions prepared from 10′000 ppm DMSO stock solutions. After drying the leaf discs were infested with a thrips population of mixed ages. The samples were assessed for mortality 6 days after infestation.

Diabrotica balteata [1] = assay: Diabrotica balteata (corn rootworm), L2 larvae on artificial diet; details: 120 h, application rate of 200 ppm, mortality and growth inhibition 5 days after infestation
Protocol: Diabrotica balteata (Corn Rootworm):
as §1, with “(6” for “(10”, “10” for “15”, “Diabrotica balteata” for “Plutella xyllostella”

Diabrotica balteata [2] = assay: Diabrotica balteata (corn rootworm), sprayed maize sprouts; details: 96 h, application rate of 200 ppm, 4 days after infestation, L2 larvae
Protocol: Diabrotica balteata, (Corn Rootworm)
Maize sprouts, placed on an agar layer in 24-well microtiter plates were treated with aqueous test solutions prepared from 10′000 ppm DMSO stock solutions by spraying. After drying, the plates were infested with L2 larvae (6 to 10 per well). The samples were assessed for mortality 4 days after infestation.

Myzus persicae = Myzus persicae (green peach aphid), sunflower leaf disc spray test; details: foliar, 144 h, read-out: mortality of Myzus persicae
Protocol: Myzus persicae (Green Peach Aphid):
Sunflower leaf discs were placed on agar in a 24-well microtiter plate and sprayed with aqueous test solutions prepared from 10′000 ppm DMSO stock solutions. After drying, the leaf discs were infested with an aphid population of mixed ages. The samples were assessed for mortality 6 days after infestation.

NS(=O)(=O)CSc1ccc(C2=NOC(c3cc(Cl)cc(Cl)c3)(C(F)(F)F)C2)cc1Br (stereo not shown) [Compound A1, [2-bromo-4-[5-(3,5-dichlorophenyl)-5-(trifluoromethyl)-4H-isoxazol-3-yl]phenyl]sulfanylmethanesulfonamide]
≥ 80%: pest or weed control at 200 ppm (Plutella xylostella) | pest or weed control at 200 ppm (Heliothis virescens) | pest or weed control at 200 ppm (Spodoptera littoralis) | pest or weed control at 200 ppm (Tetranychus urticae) | pest or weed control at 200 ppm (Thrips tabaci) | pest or weed control at 200 ppm (Diabrotica balteata [1])

CCNS(=O)(=O)CSc1ccc(C2=CSC(c3cc(Cl)cc(Cl)c3)(C(F)(F)F)C2)cc1Br (stereo not shown) [Compound D2, 1-[2-bromo-4-[2-(3,5-dichlorophenyl)-2-(trifluoromethyl)-3H-thiophen-4-yl]phenyl]sulfanyl-N-ethyl-methanesulfonamide]
≥ 80%: pest or weed control at 200 ppm (Plutella xylostella) | pest or weed control at 200 ppm (Heliothis virescens) | mortality at 200 ppm (Diabrotica balteata [2]) | pest or weed control at 200 ppm (Spodoptera littoralis)

CCNS(=O)(=O)CSc1ccc(C2=NOC(c3cc(Cl)cc(Cl)c3)(C(F)(F)F)C2)cc1Br (stereo not shown) [Compound A3, 1-[2-bromo-4-[5-(3,5-dichlorophenyl)-5-(trifluoromethyl)-4H-isoxazol-3-yl]phenyl]sulfanyl-N-ethyl-methanesulfonamide]
≥ 80%: pest or weed control at 200 ppm (Plutella xylostella) | pest or weed control at 200 ppm (Heliothis virescens) | mortality at 200 ppm (Myzus persicae) | pest or weed control at 200 ppm (Spodoptera littoralis) | pest or weed control at 200 ppm (Tetranychus urticae) | pest or weed control at 200 ppm (Thrips tabaci) | pest or weed control at 200 ppm (Diabrotica balteata [1])

CC(C)NS(=O)(=O)CSc1ccc(C2=NO[C@@](c3cc(Cl)cc(Cl)c3)(C(F)(F)F)C2)cc1Br [Compound B4, 1-[2-bromo-4-[(5S)-5-(3,5-dichlorophenyl)-5-(trifluoromethyl)-4H-isoxazol-3-yl]phenyl]sulfanyl-N-isopropyl-methanesulfonamide]
≥ 80%: pest or weed control at 200 ppm (Plutella xylostella) | pest or weed control at 200 ppm (Heliothis virescens) | mortality at 200 ppm (Myzus persicae) | pest or weed control at 200 ppm (Spodoptera littoralis) | pest or weed control at 200 ppm (Tetranychus urticae) | pest or weed control at 200 ppm (Thrips tabaci) | pest or weed control at 200 ppm (Diabrotica balteata [1])

NS(=O)(=O)CS(=O)(=O)c1ccc(C2=NOC(c3cc(Cl)cc(Cl)c3)(C(F)(F)F)C2)cc1Br (stereo not shown) [Compound A4, [2-bromo-4-[5-(3,5-dichlorophenyl)-5-(trifluoromethyl)-4H-isoxazol-3-yl]phenyl]sulfonylmethanesulfonamide]
≥ 80%: pest or weed control at 200 ppm (Plutella xylostella) | pest or weed control at 200 ppm (Heliothis virescens) | pest or weed control at 200 ppm (Spodoptera littoralis) | pest or weed control at 200 ppm (Tetranychus urticae) | pest or weed control at 200 ppm (Diabrotica balteata [1])

CCN(CC)S(=O)(=O)CSc1ccc(C2=NOC(c3cc(Cl)cc(Cl)c3)(C(F)(F)F)C2)cc1Br (stereo not shown) [Compound A2, 1-[2-bromo-4-[5-(3,5-dichlorophenyl)-5-(trifluoromethyl)-4H-isoxazol-3-yl]phenyl]sulfanyl-N,N-diethyl-methanesulfonamide]
≥ 80%: pest or weed control at 200 ppm (Plutella xylostella) | pest or weed control at 200 ppm (Heliothis virescens) | pest or weed control at 200 ppm (Spodoptera littoralis) | pest or weed control at 200 ppm (Tetranychus urticae) | pest or weed control at 200 ppm (Thrips tabaci) | pest or weed control at 200 ppm (Diabrotica balteata [1])

O=S(=O)(CSc1ccc(C2=NO[C@@](c3cc(Cl)cc(Cl)c3)(C(F)(F)F)C2)cc1Br)NCC(F)(F)F [Compound B2, 1-[2-bromo-4-[(5S)-5-(3,5-dichlorophenyl)-5-(trifluoromethyl)-4H-isoxazol-3-yl]phenyl]sulfanyl-N-(2,2,2-trifluoroethyl)-methanesulfonamide]
≥ 80%: pest or weed control at 200 ppm (Plutella xylostella) | pest or weed control at 200 ppm (Heliothis virescens) | pest or weed control at 200 ppm (Spodoptera littoralis) | pest or weed control at 200 ppm (Tetranychus urticae) | pest or weed control at 200 ppm (Thrips tabaci) | pest or weed control at 200 ppm (Diabrotica balteata [1])

CCNS(=O)(=O)CSc1ccc(C2=NO[C@@](c3cc(Cl)cc(Cl)c3)(C(F)(F)F)C2)cc1Br [Compound B1, 1-[2-bromo-4-[(5S)-5-(3,5-dichlorophenyl)-5-(trifluoromethyl)-4H-isoxazol-3-yl]phenyl]sulfanyl-N-ethyl-methanesulfonamide]
≥ 80%: pest or weed control at 200 ppm (Plutella xylostella) | pest or weed control at 200 ppm (Heliothis virescens) | mortality at 200 ppm (Myzus persicae) | pest or weed control at 200 ppm (Spodoptera littoralis) | pest or weed control at 200 ppm (Tetranychus urticae) | pest or weed control at 200 ppm (Thrips tabaci) | pest or weed control at 200 ppm (Diabrotica balteata [1])

O=S(=O)(CSc1ccc(C2=NO[C@@](c3cc(Cl)cc(Cl)c3)(C(F)(F)F)C2)cc1Br)NC1CC1 [Compound B3, 1-[2-bromo-4-[(5S)-5-(3,5-dichlorophenyl)-5-(trifluoromethyl)-4H-isoxazol-3-yl]phenyl]sulfanyl-N-cyclopropyl-methanesulfonamide]
≥ 80%: pest or weed control at 200 ppm (Plutella xylostella) | pest or weed control at 200 ppm (Heliothis virescens) | pest or weed control at 200 ppm (Spodoptera littoralis) | pest or weed control at 200 ppm (Tetranychus urticae) | pest or weed control at 200 ppm (Thrips tabaci) | pest or weed control at 200 ppm (Diabrotica balteata [1])

CCN(CC)S(=O)(=O)CSc1ccc(C2=CSC(c3cc(Cl)cc(Cl)c3)(C(F)(F)F)C2)cc1Br (stereo not shown) [Compound D1, 1-[2-bromo-4-[2-(3,5-dichlorophenyl)-2-(trifluoromethyl)-3H-thiophen-4-yl]phenyl]sulfanyl-N,N-diethyl-methanesulfonamide]
≥ 80%: pest or weed control at 200 ppm (Tetranychus urticae)

O=S(=O)(CS(=O)(=O)c1ccc(C2=NOC(c3cc(Cl)cc(Cl)c3)(C(F)(F)F)C2)cc1Br)NC1CC1 (stereo not shown) [Compound B6, 1-[2-bromo-4-[5-(3,5-dichlorophenyl)-5-(trifluoromethyl)-4H-isoxazol-3-yl]phenyl]sulfonyl-N-cyclopropyl-methanesulfonamide]
≥ 80%: pest or weed control at 200 ppm (Plutella xylostella) | pest or weed control at 200 ppm (Heliothis virescens) | pest or weed control at 200 ppm (Spodoptera littoralis) | pest or weed control at 200 ppm (Tetranychus urticae) | pest or weed control at 200 ppm (Thrips tabaci) | pest or weed control at 200 ppm (Diabrotica balteata [1])

C#CCNS(=O)(=O)CSc1ccc(C2=NO[C@@](c3cc(Cl)cc(Cl)c3)(C(F)(F)F)C2)cc1Br [Compound B5, 1-[2-bromo-4-[(5S)-5-(3,5-dichlorophenyl)-5-(trifluoromethyl)-4H-isoxazol-3-yl]phenyl]sulfanyl-N-propargyl-methanesulfonamide]
≥ 80%: pest or weed control at 200 ppm (Plutella xylostella) | pest or weed control at 200 ppm (Heliothis virescens) | pest or weed control at 200 ppm (Spodoptera littoralis) | pest or weed control at 200 ppm (Tetranychus urticae) | pest or weed control at 200 ppm (Thrips tabaci) | pest or weed control at 200 ppm (Diabrotica balteata [1])
